Measured values reported in US10099045B2, “Administration of antibiotics and therapeutic agents” (priority 2008, dated 2018).
Values joined by “and” are separate entries in the source; they are usually repeats but may differ in a detail not shown here. Equal values may be shown once. Read-outs that look alike come from different tables or passages of the source.

How the values were obtained:
STA 29213 MSSA = test: MIC of Cefazolin, broth dilution method; type: cell-based, S. aureus; conditions: for MIC/Cefazolin: single determinations
Text: (§1) Accordingly, further tests of Cephazolin with a range of different MRSA strains at concentrations well above the dose achievable by IV delivery were made to understand these finding. The Minimum inhibitory concentration (MIC) of Cephazolin with respect to these various strains is reported below in Table 1 in units are in .mu·g/ml of Cefazolin using the broth dilution method. MIC is the lowest concentration of an antimicrobial that will inhibit the visible growth of a microorganism after overnight incubation. STA 29213 is the conventional strain of S. aureus, showing normal sensitivity to Cefazolin with an MIC of 0.5.mu·g/ml.
(§2) The colony count in the last column is just a quality control measure to insure the correct innooculum.

MRSA 116 = test: MIC of Cefazolin, broth dilution method; type: cell-based, Staphylococcus aureus
Text: as §1, §2

MRSA 142 ATCC 33591 MRSA = test: MIC of Cefazolin, broth dilution method; type: cell-based, Staphylococcus aureus
Text: as §1, §2

MRSA 143 = test: MIC of Cefazolin, broth dilution method; type: cell-based, Staphylococcus aureus
Text: as §1, §2

MRSA 144 = test: MIC of Cefazolin, broth dilution method; type: cell-based, Staphylococcus aureus
Text: as §1, §2

MRSA 145 = test: MIC of Cefazolin, broth dilution method; type: cell-based, Staphylococcus aureus
Text: as §1, §2

MRSA 146 = test: MIC of Cefazolin, broth dilution method; type: cell-based, Staphylococcus aureus
Text: as §1, §2

MRSA 147 = test: MIC of Cefazolin, broth dilution method; type: cell-based, Staphylococcus aureus
Text: as §1, §2

MRSA 148 = test: MIC of Cefazolin, broth dilution method; type: cell-based, Staphylococcus aureus
Text: as §1, §2

MRSA 149 = test: MIC of Cefazolin, broth dilution method; type: cell-based, Staphylococcus aureus
Text: as §1, §2

MRSA 150 = test: MIC of Cefazolin, broth dilution method; type: cell-based, Staphylococcus aureus
Text: as §1, §2

MRSA 151 = test: MIC of Cefazolin, broth dilution method; type: cell-based, Staphylococcus aureus
Text: as §1, §2

MRSA 152 = test: MIC of Cefazolin, broth dilution method; type: cell-based, Staphylococcus aureus
Text: as §1, §2

MRSA 56 (494) = test: MIC of Cefazolin, broth dilution method; type: cell-based, Staphylococcus aureus
Text: as §1, §2

Mu 3 MRSA hVISA = test: MIC of Cefazolin, broth dilution method; type: cell-based, Staphylococcus aureus; conditions: for MIC/Cefazolin: single determinations
Text: as §1, §2

Mu 50 MRSA VISA = test: MIC of Cefazolin, broth dilution method; type: cell-based, Staphylococcus aureus
Text: as §1, §2

STA 25923 MSSA = test: MIC of Cefazolin, broth dilution method; type: cell-based, Staphylococcus aureus
Text: as §1, §2

[1] = Adipose tissue and serum concentration after subcutaneous infusion with transcutaneous ultrasound, elective abdominoplasty; conditions: for blood serum concentration: 1 gm subcutaneous plus ultrasound, when surgery was completed about an hour later
Protocol: A prophylactic dose of the antibiotic Cafazolin was delivered to a patient by the above procedure prior to elective abdominoplasty using the Silberg Tissue Preparation Systems TM Model ME 800 (9801427) Mettler Surgical, Anaheim, Calif.). About 250 cc of prewarmed saline containing 1 gm of Cefazolin was injected under a surgical incision line 201 that was about 5 cm long. Small sample of adipose tissue where taken during the surgical procedure to determine if the Cefazolin would remain above desired concentration reported by Ohge et al., and thus remain sufficiently high through the procedure. Further, blood serum samples were taken during the procedure to determine the potential for a longer term systemic delivery.

[2] = test system: methicillin-sensitive Staphylococcus aureus (MSSA), Klebsiella pneumoniae, Escherichia coli, Streptococcus spp.; conditions: 360 MSSA, 204 K. pneumoniae, 314 E. coli, 30 Streptococcus spp. isolates; cited from earlier work
[3] = intravenous bolus 1 g, cited from earlier work
[4] = Staphylococcus aureus, read-out: Median MIC

Cc1nnc(SCC2=C(C(=O)O)N3C(=O)[C@@H](NC(=O)Cn4cnnn4)[C@H]3SC2)s1 [Cefazolin]
MIC (STA 29213 MSSA; [4]): 0.5 µg/mL | MIC/Cefazolin (STA 29213 MSSA; MSSA strain): 1 µg/mL | MIC/Cefazolin (STA 29213 MSSA; conventional S. aureus strain STA 29213): 0.5 µg/mL | MIC/Cefazolin (MRSA 116; MRSA 116, single determinations): 512 µg/mL and 256 µg/mL | MIC (MRSA 116; Staphylococcus aureus, MRSA 116, read-out: Median MIC): 256 µg/mL | MIC/Cefazolin (MRSA 142 ATCC 33591 MRSA; MRSA 142 ATCC 33591, single determinations): 256 µg/mL | MIC (MRSA 142 ATCC 33591 MRSA; Staphylococcus aureus, MRSA 142 ATCC 33591, read-out: Median MIC): 256 µg/mL | MIC/Cefazolin (MRSA 143; MRSA 143, single determinations): 64 µg/mL and 128 µg/mL | MIC (MRSA 143; Staphylococcus aureus, MRSA 143, read-out: Median MIC): 128 µg/mL | MIC/Cefazolin (MRSA 144; MRSA 144, single determinations): 64 µg/mL and 128 µg/mL | MIC (MRSA 144; Staphylococcus aureus, MRSA 144, read-out: Median MIC): 64 µg/mL | MIC/Cefazolin (MRSA 145; MRSA 145, single determinations): 128 µg/mL | MIC (MRSA 145; Staphylococcus aureus, MRSA 145, read-out: Median MIC): 128 µg/mL | MIC/Cefazolin (MRSA 146; MRSA 146, single determinations): 64 µg/mL and 128 µg/mL | MIC (MRSA 146; Staphylococcus aureus, MRSA 146, read-out: Median MIC): 64 µg/mL | MIC/Cefazolin (MRSA 147; MRSA 147, single determinations): 64 µg/mL | MIC (MRSA 147; Staphylococcus aureus, MRSA 147, read-out: Median MIC): 64 µg/mL | MIC/Cefazolin (MRSA 148; MRSA 148, single determinations): 256 µg/mL and 128 µg/mL | MIC (MRSA 148; Staphylococcus aureus, MRSA 148, read-out: Median MIC): 256 µg/mL | MIC/Cefazolin (MRSA 149; MRSA 149, single determinations): 128 µg/mL | MIC (MRSA 149; Staphylococcus aureus, MRSA 149, read-out: Median MIC): 128 µg/mL | MIC/Cefazolin (MRSA 150; MRSA 150, single determinations): 512 µg/mL | MIC (MRSA 150; Staphylococcus aureus, MRSA 150, read-out: Median MIC): 512 µg/mL | MIC/Cefazolin (MRSA 151; MRSA 151, single determinations): 128 µg/mL | MIC (MRSA 151; Staphylococcus aureus, MRSA 151, read-out: Median MIC): 128 µg/mL | MIC/Cefazolin (MRSA 152; MRSA 152, single determinations): 4 µg/mL and 8 µg/mL | MIC (MRSA 152; Staphylococcus aureus, MRSA 152, read-out: Median MIC): 4 µg/mL | MIC (MRSA 56 (494); [4]): 128 µg/mL | MIC/Cefazolin (MRSA 56 (494); single determinations): 64 µg/mL and 128 µg/mL | MIC relative to the dose required for normal strains (Mu 3 MRSA hVISA; MU 3, most resistant strain): about 50 times | MIC/Cefazolin (Mu 3 MRSA hVISA; Mu 3 MRSA hVISA): 512 µg/mL | MIC/Cefazolin (Mu 3 MRSA hVISA; Mu 3 MRSA hVISA, listed as antibiotic): about 512 μg/ml | MIC (Mu 3 MRSA hVISA; Staphylococcus aureus, Mu 3 MRSA hVISA, read-out: Median MIC): 512 µg/mL | MIC (Mu 50 MRSA VISA; [4]): 256 µg/mL | MIC/Cefazolin (Mu 50 MRSA VISA; single determinations): 256 µg/mL | MIC (STA 25923 MSSA; [4]): 0.5 µg/mL | MIC/Cefazolin (STA 25923 MSSA; single determinations): 0.5 µg/mL | blood serum concentration [1]: about 10 μg/ml | blood serum concentration ([1]; listed as antibiotic): less than 10 μg/ml | tissue concentration relative to intravenous administration of Ohge et al. ([1]; human, in vivo): about 50 times | Kp ([1]; human, in vivo, 1 gm): < 10 | tissue level to achieve minimum inhibitory concentrations for 80% (MIC80) of four bacterial species [2]: about 4 μg/ml | serum concentration ([3]; after about 4 hours): about 10 μg/ml | mean tissue concentration ([3]; after slightly more than 2 hours of surgery): below 4 μg/ml | mean tissue concentration ([3]; an hour after surgery commenced): about 10 μg/ml | mean tissue concentration ([3]; an hour after surgery commenced, listed as antibiotic): 10 µg/mL | serum concentration ([3]; end of the same time period (slightly more than 2 hours)): ~40000 ng/mL | serum concentration ([3]; start of the same time period (an hour after surgery commenced)): about 80 μg/ml
